Reference: patent US20080207450A1, “Method of Substantially Preventing or Inhibiting Summer Bentgrass Decline” (priority 2007, published 2008)

Test system: Creeping bentgrass
Assay: Outdoor bentgrass bed exposed to elevated atmospheric carbon dioxide over summer; visual quality and root depth
Type: in vivo, Agrostis stolonifera
Details: about 700 ppm carbon dioxide from daylight until dark, July and August
Experimental: In the fall, the inventors established an outdoor bed of bentgrass in Lincoln Parish, La. This region has an average daily high temperature in July and August of 93° F. (www.enlou.com/econ/lincoln_econ.htm). The bed of bentgrass established by the inventors was a randomized block comprising three varieties of Creeping bentgrass: Penn A1 (Agrostis stolonifera ‘Penn A-1’), Penn A2, (Agrostis stolonifera ‘Penn A-2’) and Penn A4 (Agrostis stolonifera ‘Penn A-4’). The bentgrass bed was maintained over the winter. During the following July and August, the inventors constructed a conduit system through which carbon dioxide was pumped over a portion of the bentgrass bed (test zone). The conduit system comprised a plurality of hollow PVC pipes, each pipe having an approximate length of 72 inches and an approximate diameter of ¾ of an inch. Several of the pipes were affixed to each other to form the perimeter of a support platform having a rectangular shape. The remaining pipes were arranged in a parallel fashion and affixed within the support platform. […] The carbon dioxide concentrations in both zones were monitored via a standard, commercially available gas analyzer. At the end of August, both the treated and non-treated areas of the bentgrass were assayed visually for quality and also measured for root-depth.

SMILES: O=C=O [carbon dioxide]
- length of sample root (sample root from test zone, measured at end of August): approximately 10.75 inches
- visual quality of bentgrass (test zone, Lincoln Parish, La., assayed at end of August, varieties Penn A1, A2, A4): did not experience a loss in quality
